Patent publication US20180171280A1, “CELL CULTURE EXPOSURE SYSTEM (CCES)” (priority 2016, published 2018)

What was measured:
[1] = test system: Human primary lung cells; assay: CellTiter-Glo Luminescent Cell Viability Assay after ALI exposure in the CCES, human primary lung cells; type: cell-based; conditions: 2 h ALI exposure, 4 h post-exposure, Inc. Ct. = 100; for CellTiter-Glow viability, Average: average of 3 experiments
Description: (§1) The Cell Culture Exposure System (CCES) provides the ability to expose cultured mammalian cells to airborne chemicals at ALI conditions in a 24-well format.
Human primary lung cells were collected by cytology brush biopsy during bronchoscopy at EPA clinical facility in Chapel Hill. Cells were cultured by standard procedures and were provided to EPA/RTP.
Cells were cultured and plated onto Transwell membranes and grown out for 28 days as described in OP.
(§2) Cells were placed into new 24-well plates with fresh growth media and put at ALI 2 h prior to exposure. […] Control cells were exposed simultaneously to clean air for 2 h in a separate chamber. Another set of control cells were kept at ALI in an incubator (37° C., 5% CO2) for 2 h. After the exposure, cells were placed in an incubator (37° C., 5% CO2) for 4 h. A total of three exposures were conducted for each cell type.
(§3) The CellTiter-Glo® Luminescent Cell Viability Assay (Promega) determines the number of viable cells based on quantification of the ATP present; an indicator of metabolically active cells. […] Two inserts per exposure condition were measured for each run.

[2] = test system: BEAS-2B cells; assay: CellTiter-Glo Luminescent Cell Viability Assay after ALI exposure in the CCES, BEAS-2B cells; type: cell-based, human; conditions: 2 h ALI exposure, 4 h post-exposure, Inc. Ct. = 100; for CellTiter-Glow viability, Average: average of 3 experiments
Description: as §1
The BEAS-2B cell line, obtained from ATTC, is an immortalized human bronchial epithelial lung cell.
Cells were grown out on T75 cm^2 flasks in complete Keratinocyte Growth Media (KGM) (KGM-Gold Bullet Kit, Lonza®). Cells were passaged and seeded onto 6.5 mm (24-well format) permeable (0.4-μm pore size) Transwell polyester membranes at passages 55 and 56. Prior to seeding, Transwells were coated with PureCol® bovine collagen (Advanced Biometrix) at a density of 10 μg/cm^2. Cells were seeded at 3.0×10^4 cells per Transwell membranes 48 h prior to exposure and at 1.5×10^4 per Transwell membrane 72 h prior to exposure to obtain a confluent monolayer. Cells were seeded on 4 inserts per exposure condition for each run.
as §2, §3

## C=CC=C [1,3-Butadiene, 1,3-butadiene]
[1]; 0.16 ppm
  CellTiter-Glow viability, May 3, 2017: 110.9
  CellTiter-Glow viability, May 4, 2017: 99.9
  CellTiter-Glow viability, May 5, 2017: 90.1
  CellTiter-Glow viability, Average: 100.3
[1]; 0.5 ppm
  CellTiter-Glow viability, May 3, 2017: 118.5
  CellTiter-Glow viability, May 4, 2017: 86.3
  CellTiter-Glow viability, May 5, 2017: 94.2
  CellTiter-Glow viability, Average: 99.6
[1]; 1.7 ppm
  CellTiter-Glow viability, May 3, 2017: 120.3
  CellTiter-Glow viability, May 4, 2017: 91.8
  CellTiter-Glow viability, May 5, 2017: 101.4
  CellTiter-Glow viability, Average: 104.5
[1]; 5 ppm
  CellTiter-Glow viability, May 3, 2017: 122.0
  CellTiter-Glow viability, May 4, 2017: 112.0
  CellTiter-Glow viability, May 5, 2017: 98.6
  CellTiter-Glow viability, Average: 110.8
[1]; 16 ppm
  CellTiter-Glow viability, May 3, 2017: 128.1
  CellTiter-Glow viability, May 4, 2017: 101.3
  CellTiter-Glow viability, May 5, 2017: 98.9
  CellTiter-Glow viability, Average: 109.4
[1]; 50 ppm
  CellTiter-Glow viability, May 3, 2017: 104.7
  CellTiter-Glow viability, May 4, 2017: 92.7
  CellTiter-Glow viability, May 5, 2017: 95.4
  CellTiter-Glow viability, Average: 97.6
[2]; 0.16 ppm
  CellTiter-Glow Viability, May 10, 2017: 96.27
  CellTiter-Glow Viability, May 11, 2017: 87.14
  CellTiter-Glow Viability, May 12, 2017: 96.95
  CellTiter-Glow viability, Average: 93.45
[2]; 0.5 ppm
  CellTiter-Glow Viability, May 10, 2017: 101.8
  CellTiter-Glow Viability, May 11, 2017: 89.3
  CellTiter-Glow Viability, May 12, 2017: 96.1
  CellTiter-Glow viability, Average: 95.73
[2]; 1.7 ppm
  CellTiter-Glow Viability, May 10, 2017: 94.35
  CellTiter-Glow Viability, May 11, 2017: 94.49
  CellTiter-Glow Viability, May 12, 2017: 95.83
  CellTiter-Glow viability, Average: 94.89
[2]; 5 ppm
  CellTiter-Glow Viability, May 10, 2017: 105.3
  CellTiter-Glow Viability, May 11, 2017: 81.9
  CellTiter-Glow Viability, May 12, 2017: 96.8
  CellTiter-Glow viability, Average: 94.66
[2]; 16 ppm
  CellTiter-Glow Viability, May 10, 2017: 101.5
  CellTiter-Glow Viability, May 11, 2017: 87.31
  CellTiter-Glow Viability, May 12, 2017: 79.14
  CellTiter-Glow viability, Average: 89.33
[2]; 50 ppm
  CellTiter-Glow Viability, May 10, 2017: 105.1
  CellTiter-Glow Viability, May 11, 2017: 71.1
  CellTiter-Glow Viability, May 12, 2017: 9.72
  CellTiter-Glow viability, Average: 61.99
